Earlier results, collected in patent US9316644B2, “Method for establishing the sensitivity of tumours to capecitabin and test kit” (SANOXSYS GMBH, priority 2006, dated 2016).
Where two headings read alike, the source gives them in different places.

How the values were obtained:
[1] = tested on: progressive mamma carcinoma; settings: of 25 patients; continuous low-dose 5-FU
[2] = tested on: metastatic mamma carcinoma
[3] = tested on: metastatic mamma carcinomas; settings: for median reaction duration: in vivo; for ORR (overall response): second line after anthracycline failure
[4] = tested on: metastatic mamma carcinomas
[5] = 68 patients evaluable for effectivity

## O=c1[nH]cc(F)c(=O)[nH]1 [5-FU, 5-Fluorouracil]
[1]
  patients achieving an objective reaction: 8 patients

## CCCCCOC(=O)Nc1nc(=O)n(C2OC(C)C(O)C2O)cc1F (centres unmarked) [capecitabine, Pentyl[1-(3,4-dihydroxy-5-methyl-tetrahydrofuran-2-yl)-5-fluoro-2-oxo-1H-pyrimidin-4-yl]aminomethanoat]
[2]; [5]
  complete remission: 3%
  partial remission: 22%
[2]; CTC degree 1 and 2
  diarrhea: 21%
  lethargy: 18%
  nausea and vomiting: 38%
[2]; CTC degree 1 and 2, 1250 mg/m^2 twice a day for 14 days, 7-day break, 77 patients evaluable
  hand and foot syndrome: 40%
[2]; degree 3
  hand and foot toxicity: 14%
[2]; in vivo
  stabilization of the disease: 47%
[2]; patients with intensive previous treatment
  tumor control: 72%
[3]
  median reaction duration: 9.4 months
  ORR (overall response): 36%
With CPT-11, Tomudex, Mitomycin C or Cyclophosphamide
  combination effect: additive
With Paclitaxel or Docetaxel
  combination effect: supra-additive
With a radiation therapy
  combination effect: Synergetic effects
[4]; human, in vivo
  mean remission duration: 241 days
  median survival: 384 days
  median time until progression: 93 days
  patients with stable sequence of the illness: 43%
  therapy-induced fatalities: did not occur
[4]; intend to treat evaluation, 162 patients, 2510 mg/m^2/day for 14 days, 7-day break
  objective remission rate: 20%
[4]; no pre-medication or primary prophylaxis necessary
  tolerability: excellent tolerability profile
[4]; of 51 patients with pain figure above 20 mm on analogue pain scale at start
  patients whose pain was reduced by more than 50%: 47%
[4]; sub-group of 42 anthracycline and paclitaxel therapy refractory patients
  reaction rate: 29%

## CC(=O)O[C@H]1C(=O)[C@@]2(C)[C@H]([C@H](OC(=O)c3ccccc3)[C@]3(O)C[C@H](OC(=O)[C@H](O)[C@@H](NC(=O)c4ccccc4)c4ccccc4)C(C)=C1C3(C)C)[C@]1(OC(C)=O)CO[C@@H]1C[C@@H]2O [Paclitaxel]
[3]
  median reaction duration: 9.4 months
  ORR (overall response): 21%
